The values below come from publication PMC6162791, “Phoneutria nigriventer Spider Toxin PnTx2-1 (δ-Ctenitoxin-Pn1a) Is a Modulator of Sodium Channel Gating” (Toxins, 2018).

Data set [1] deals with T1, NaV1.5 (Homo sapiens, UniProt Q14524). The format is cell-based, mammalian.
Data set [2] has as its system BgNaV1. The experiment in a line: Voltage dependence of activation and steady-state inactivation, BgNaV1. Type of data set: cell-based, Blattella germanica.
Another data set has as its system NaV1.6. Briefly: Two-electrode voltage clamp in Xenopus oocytes, NaV1.6 modulation. Type of data set: cell-based, mammalian. In general terms: In two-electrode clamp one electrode senses voltage and the other passes current.
The target in data set [3] is T2, NaV1.1 (Homo sapiens, UniProt P35498). The experiment in a line: Two-electrode voltage clamp in Xenopus oocytes, NaV1.1 modulation / concentration-response. The note with it: NaV1.1, 1 µM. Type of data set: cell-based, mammalian.
The target of data set [4] is T1, NaV1.5. Briefly: Recovery from inactivation, NaV1.5. The format is cell-based, mammalian. The note with it: NaV1.5, 1 µM.
In a further data set the test system is mice. The note with it: cited from earlier work. The text has this:
Spiders can be considered one of the most successful venomous animals ever to inhabit the planet with over 47,000 species characterized to date. Despite this diversity, no more than 100 spider species have had their venom investigated. With over ten million estimated biologically active peptides in spider venoms, this means that less than 0.01% of spider peptides have been studied, making spider venom an untapped treasure of biologically active compounds with promising discoveries in drug and bioinsecticide development. Phoneutria nigriventer are very ...

In data set [5] the test system is BgNaV1. Briefly: Recovery from fast inactivation, BgNaV1. The format is cell-based, Blattella germanica. The note with it: BgNaV1, 1 µM.
Data set [6] relates to BgNaV1. Briefly: State-dependence (toxin incubation without depolarizing pulses), BgNaV1. Type of data set: cell-based, Blattella germanica. The note with it: BgNaV1, 1 µM.
Another data set concerns NaV1.3. The experiment in a line: Two-electrode voltage clamp in Xenopus oocytes, NaV1.3 modulation. Type of data set: cell-based, mammalian.
For data set [7], the system named is BgNaV1. Briefly: Two-electrode voltage clamp in Xenopus oocytes, BgNaV1 modulation / concentration-response. Type of data set: cell-based, Blattella germanica.
The subject of the next data set is NaV channels. Briefly: NaV channel panel in Xenopus oocytes (ion selectivity, species selectivity). The format is cell-based. The note with it: presence of toxin, ion selectivity not altered.
Data set [8] has as its target T2, NaV1.1. The experiment in a line: Voltage dependence of activation and steady-state inactivation, NaV1.1. The note with it: NaV1.1, 1 µM. Type of data set: cell-based, mammalian.
Data set [9] addresses T3, NaV1.8 (Homo sapiens, UniProt Q9Y5Y9). Briefly: Two-electrode voltage clamp in Xenopus oocytes, NaV1.8 modulation / concentration-response. Type of data set: cell-based, mammalian. The note with it: NaV1.8, 1 μM.
Data set [10] deals with T1, NaV1.5. Briefly: Two-electrode voltage clamp in Xenopus oocytes, NaV1.5 modulation / concentration-response. The format is cell-based, mammalian. The note with it: NaV1.5, 1 µM.
For data set [11], the target named is T1, NaV1.5. The experiment in a line: Current-voltage relationship, activation and steady-state inactivation, NaV1.5. Type of data set: cell-based, mammalian.
In data set [12] the target is T3, NaV1.8. Briefly: Voltage dependence of activation and steady-state inactivation, NaV1.8. Type of data set: cell-based, mammalian.
In a further data set the test system is NaV1.2. Briefly: Two-electrode voltage clamp in Xenopus oocytes, NaV1.2 modulation. The format is cell-based, mammalian.
In a further data set the test system is VdNaV1. The experiment in a line: Two-electrode voltage clamp in Xenopus oocytes, VdNaV1 modulation / concentration-response. Type of data set: cell-based, Varroa destructor.
In a further data set the test system is NaV1.4. Briefly: Two-electrode voltage clamp in Xenopus oocytes, NaV1.4 modulation. The format is cell-based, mammalian.
The subject of another data set is PnTx2-6 binding site. The note with it: ref [14]; cited from earlier work. The source says: PnTx2-1 shares the highest sequence identity with PnTx2-5 and PnTx2-6, which are also isolated from the Phoneutria nigriventer venom fraction 2 [13]. PnTx2-5 and PnTx2-6 are the best-characterized toxins from the PhTx2 venom fraction. These two toxins share 90% sequence identity, with only five amino acid residues different (Figure 1). […] Both peptides modulate sodium chann ...

Bridge positions count the residues as written; N and C are the ends. Ends that are not written are not given here.

T3 sequence (Q9Y5Y9 whole entry): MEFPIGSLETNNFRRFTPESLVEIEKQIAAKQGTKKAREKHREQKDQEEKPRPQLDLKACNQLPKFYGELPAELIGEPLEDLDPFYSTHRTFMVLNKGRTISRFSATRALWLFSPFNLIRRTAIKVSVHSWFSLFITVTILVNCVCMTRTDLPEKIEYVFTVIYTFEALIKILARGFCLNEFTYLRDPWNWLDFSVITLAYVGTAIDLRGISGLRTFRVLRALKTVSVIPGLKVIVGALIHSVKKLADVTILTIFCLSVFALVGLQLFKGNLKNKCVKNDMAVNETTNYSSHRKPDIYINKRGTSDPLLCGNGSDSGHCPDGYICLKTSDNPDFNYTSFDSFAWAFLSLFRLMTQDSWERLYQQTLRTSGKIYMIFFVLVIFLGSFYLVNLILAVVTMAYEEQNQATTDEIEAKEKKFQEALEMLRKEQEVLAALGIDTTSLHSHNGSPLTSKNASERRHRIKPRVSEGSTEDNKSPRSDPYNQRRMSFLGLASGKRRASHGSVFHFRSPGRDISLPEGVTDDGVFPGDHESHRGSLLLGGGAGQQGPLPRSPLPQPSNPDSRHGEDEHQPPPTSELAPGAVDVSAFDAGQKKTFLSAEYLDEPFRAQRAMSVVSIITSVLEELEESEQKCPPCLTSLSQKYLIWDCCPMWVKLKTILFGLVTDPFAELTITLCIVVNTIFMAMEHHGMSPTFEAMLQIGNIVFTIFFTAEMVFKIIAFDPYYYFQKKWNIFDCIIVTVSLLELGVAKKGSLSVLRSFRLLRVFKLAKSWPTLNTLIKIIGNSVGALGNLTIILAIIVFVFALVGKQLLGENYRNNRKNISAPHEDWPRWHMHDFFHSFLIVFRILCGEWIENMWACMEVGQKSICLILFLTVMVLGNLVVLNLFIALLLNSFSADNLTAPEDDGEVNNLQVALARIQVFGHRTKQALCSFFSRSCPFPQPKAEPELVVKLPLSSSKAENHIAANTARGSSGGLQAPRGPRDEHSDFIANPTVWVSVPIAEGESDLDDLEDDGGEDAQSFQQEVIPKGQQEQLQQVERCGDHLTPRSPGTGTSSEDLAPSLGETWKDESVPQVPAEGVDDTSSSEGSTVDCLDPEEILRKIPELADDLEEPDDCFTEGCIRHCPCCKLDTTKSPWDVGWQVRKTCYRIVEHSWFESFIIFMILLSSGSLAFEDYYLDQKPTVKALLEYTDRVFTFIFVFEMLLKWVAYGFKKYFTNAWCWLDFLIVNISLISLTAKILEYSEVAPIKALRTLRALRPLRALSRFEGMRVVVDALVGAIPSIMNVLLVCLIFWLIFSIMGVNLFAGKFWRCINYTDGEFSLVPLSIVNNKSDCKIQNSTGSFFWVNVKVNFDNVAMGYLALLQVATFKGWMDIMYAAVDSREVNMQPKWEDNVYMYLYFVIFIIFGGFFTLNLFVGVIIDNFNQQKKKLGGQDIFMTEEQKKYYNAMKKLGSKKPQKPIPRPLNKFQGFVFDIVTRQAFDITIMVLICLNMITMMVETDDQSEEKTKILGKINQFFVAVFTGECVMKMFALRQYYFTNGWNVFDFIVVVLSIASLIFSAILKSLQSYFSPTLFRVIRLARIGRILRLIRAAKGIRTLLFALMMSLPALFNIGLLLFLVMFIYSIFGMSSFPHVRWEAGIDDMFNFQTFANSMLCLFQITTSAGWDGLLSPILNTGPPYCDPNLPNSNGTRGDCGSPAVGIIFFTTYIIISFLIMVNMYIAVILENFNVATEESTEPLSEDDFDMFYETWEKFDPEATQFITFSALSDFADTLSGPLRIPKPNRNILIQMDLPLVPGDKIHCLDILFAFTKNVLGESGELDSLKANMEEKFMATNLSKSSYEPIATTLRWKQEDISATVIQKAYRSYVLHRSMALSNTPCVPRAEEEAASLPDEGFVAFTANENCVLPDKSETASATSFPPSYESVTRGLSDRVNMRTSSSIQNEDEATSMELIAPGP
T1 sequence (Q14524 whole entry, looked up): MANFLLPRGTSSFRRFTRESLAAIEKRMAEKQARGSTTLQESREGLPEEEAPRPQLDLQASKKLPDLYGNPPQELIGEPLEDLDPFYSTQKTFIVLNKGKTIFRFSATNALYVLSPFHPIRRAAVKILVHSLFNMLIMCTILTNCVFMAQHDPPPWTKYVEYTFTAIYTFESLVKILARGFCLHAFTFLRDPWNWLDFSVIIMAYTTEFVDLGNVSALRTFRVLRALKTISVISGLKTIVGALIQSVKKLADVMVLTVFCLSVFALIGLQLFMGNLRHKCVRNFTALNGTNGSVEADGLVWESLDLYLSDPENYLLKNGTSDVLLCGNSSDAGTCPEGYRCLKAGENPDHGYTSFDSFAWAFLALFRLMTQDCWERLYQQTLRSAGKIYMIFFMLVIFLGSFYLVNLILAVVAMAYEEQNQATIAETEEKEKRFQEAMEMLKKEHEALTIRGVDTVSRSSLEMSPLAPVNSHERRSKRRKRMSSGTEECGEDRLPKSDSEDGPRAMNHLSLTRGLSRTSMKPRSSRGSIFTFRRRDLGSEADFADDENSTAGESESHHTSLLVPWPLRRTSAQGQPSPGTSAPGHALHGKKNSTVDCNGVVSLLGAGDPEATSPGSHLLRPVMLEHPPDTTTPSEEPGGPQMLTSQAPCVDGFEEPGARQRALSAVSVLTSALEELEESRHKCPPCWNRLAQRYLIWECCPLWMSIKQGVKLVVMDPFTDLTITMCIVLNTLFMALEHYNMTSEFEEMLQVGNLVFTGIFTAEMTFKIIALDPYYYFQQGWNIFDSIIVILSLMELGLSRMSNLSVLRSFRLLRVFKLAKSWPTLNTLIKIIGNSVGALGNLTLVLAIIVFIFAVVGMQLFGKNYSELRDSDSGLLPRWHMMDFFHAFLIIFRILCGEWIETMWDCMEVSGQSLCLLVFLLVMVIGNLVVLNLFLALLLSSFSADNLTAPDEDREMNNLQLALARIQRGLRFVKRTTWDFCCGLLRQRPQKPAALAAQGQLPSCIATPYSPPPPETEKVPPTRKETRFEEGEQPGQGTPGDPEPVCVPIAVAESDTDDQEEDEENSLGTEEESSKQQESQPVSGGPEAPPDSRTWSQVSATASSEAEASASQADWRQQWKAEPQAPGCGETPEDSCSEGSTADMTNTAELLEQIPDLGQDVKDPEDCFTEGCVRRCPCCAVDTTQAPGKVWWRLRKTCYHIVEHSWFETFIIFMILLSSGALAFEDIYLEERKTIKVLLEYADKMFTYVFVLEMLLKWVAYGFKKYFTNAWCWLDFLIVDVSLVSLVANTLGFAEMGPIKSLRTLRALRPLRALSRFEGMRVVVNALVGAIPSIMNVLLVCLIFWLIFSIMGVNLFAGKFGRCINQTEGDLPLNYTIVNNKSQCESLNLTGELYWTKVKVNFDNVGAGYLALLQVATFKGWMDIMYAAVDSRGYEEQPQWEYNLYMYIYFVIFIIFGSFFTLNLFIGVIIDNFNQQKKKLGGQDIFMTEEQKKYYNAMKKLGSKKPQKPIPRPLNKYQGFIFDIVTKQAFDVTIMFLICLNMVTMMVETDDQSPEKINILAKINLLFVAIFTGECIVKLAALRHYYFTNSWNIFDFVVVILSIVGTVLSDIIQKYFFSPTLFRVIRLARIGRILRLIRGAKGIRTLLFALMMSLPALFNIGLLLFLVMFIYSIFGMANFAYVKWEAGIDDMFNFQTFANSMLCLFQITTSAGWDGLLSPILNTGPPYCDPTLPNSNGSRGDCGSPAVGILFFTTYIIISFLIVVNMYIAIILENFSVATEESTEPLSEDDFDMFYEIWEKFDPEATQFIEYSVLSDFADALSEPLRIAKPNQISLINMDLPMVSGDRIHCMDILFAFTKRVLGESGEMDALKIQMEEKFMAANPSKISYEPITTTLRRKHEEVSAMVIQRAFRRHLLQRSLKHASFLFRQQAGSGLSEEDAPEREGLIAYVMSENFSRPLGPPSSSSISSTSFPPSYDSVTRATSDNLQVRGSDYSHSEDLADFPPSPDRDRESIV

For `NC1=N[C@H](O)[C@H]2[C@H]3O[C@]4(O)O[C@@H]([C@@H](O)[C@@]2(N1)[C@@H]4O)[C@]3(O)CO` [tetrodotoxin (TTX), tetrodotoxin, reference compound], on NaV1.5 [1], the “decrease of the sodium current peak amplitude” value is 50%.

As to “ATCAGQDKPCKETCDCCGERGECVCALSYEGKYRCICRQGNFLIAWHKLASCK (disulfide 3-17, 10-23, 14-52, 16-37, 25-35) [PnTx2-1]”, in the data set on BgNaV1 [2] (BgNaV1, 1 µM), the “completeness of steady-state inactivation” value is given as “steady-state inactivation became incomplete after toxin addition”. Further, in the data set on BgNaV1 [2] (BgNaV1, 1 µM), the “shift of activation midpoint and steady-state inactivation” value was “A shift in the midpoint of activation and in the voltage dependence of steady-state inactivation”. The V1/2 of activation is recorded as −45.8 ± 0.3 mV in the data set with BgNaV1 [2] (BgNaV1, 1 µM toxin, control −38.1 ± 0.1, mean ± SEM, n ≥ 3); −45.3 ± 0.1 mV at NaV1.5 [11] (NaV1.5, 1 µM toxin, control −53.1 ± 0.1, mean ± SEM, n ≥ 3); −11.4 ± 0.1 mV on NaV1.8 [12] (NaV1.8, 1 µM toxin, control −11.5 ± 0.1, mean ± SEM, n ≥ 3). Besides, in the data set with BgNaV1 [2] (BgNaV1, 1 µM, mean ± SEM, n ≥ 3), the “non-inactivating current component of steady-state inactivation” value is 62.3 ± 3.2%. Further, the effect on channel entry in the data set on NaV1.6 (NaV1.6, 1 μM) is recorded as “not affected”; in the data set with NaV1.3 (NaV1.3, 1 μM) it was “not affected”; in the data set with NaV1.2 (NaV1.2, 1 μM) it was “not affected”; with NaV1.4 (NaV1.4, 1 μM) it was “not affected”. The activity on channel entry with NaV1.6 (NaV1.6, up to 5 µM, data not shown) is “no activity”; in the data set with NaV1.3 (NaV1.3, up to 5 µM, data not shown), “no activity”; in the data set on NaV1.2 (NaV1.2, up to 5 µM, data not shown), “no activity”; in the data set with NaV1.4 (NaV1.4, up to 5 µM, data not shown), “no activity”. Besides, the effect on inactivation entry was “slowed the inactivation” at NaV1.1 [3]; “completely inhibited inactivation of BgNaV1 channels, resulting in sustained non-inactivating currents” in the data set with BgNaV1 [7] (BgNaV1, 1 µM); “slowed the inactivation” at NaV1.8 [9]; “slowed the inactivation” at NaV1.5 [10]; “profound effect on the inactivation” in the data set with VdNaV1 (VdNaV1, 1 μM). In addition, the “recovery from inactivation” value on NaV1.5 [4] was “strongly enhanced the recovery from inactivation”. Further, the “recovery from inactivation, τ” value on NaV1.5 [4] (control τ = 50.2 ± 3.0 ms, mean ± SEM, n ≥ 3) came to 22.8 ± 3.2 ms. Moreover, on NaV1.5 [1], the “binding at neurotoxin site 1” value is “does not bind at site 1”. Besides, the “effect on peak amplitude after TTX” value at NaV1.5 [1] is recorded as “additional reduction of the peak amplitude”. Moreover, in the data set with mice (injected, ref [12]), the signs after injection entry was “pruritus, lacrimation, increased salivation, sweating and agitation followed by spastic paralysis of the limbs”. Besides, the “toxicity after intracerebral injection” value with mice (intracerebral (i.c.), among the nine PhTx2 peptides, ref [13]) was “higher toxicity”. In addition, the “recovery from fast inactivation” value in the data set with BgNaV1 [5] is listed as “does not influence the recovery from fast inactivation”. In the data set with BgNaV1 [6] (2 min at −90 mV without depolarizing pulses, then pulse to 0 mV), the “slowing of inactivation after closed-state incubation” value is “significant slowing down of inactivation”. Moreover, the toxin interaction state entry in the data set with BgNaV1 [6] (closed state) is given as “toxin interaction with the channel in the closed state”. Also, the EC50 (usually the concentration giving half of the maximal effect) is 0.0919 ± 0.017 µM in the data set with BgNaV1 [7] (BgNaV1, modulation (current at 30 ms / control peak), Hill fit, Xenopus oocytes, ND96 pH 7.5, 18–22 °C, holding −90 mV, mean ± SEM, n ≥ 3) and 0.102 ± 0.0147 µM in the data set on VdNaV1 (VdNaV1, modulation (current at 30 ms / control peak), Hill fit, Xenopus oocytes, ND96 pH 7.5, 18–22 °C, holding −90 mV, mean ± SEM, n ≥ 3). Further, the reversal potential entry in the data set on NaV channels was “No significant change in the reversal potential”. The “shift of midpoint of activation” value was “the midpoint of activation shifted towards more depolarized potentials” on NaV1.1 [8] and “the midpoint of activation shifted towards more depolarized potentials” at NaV1.5 [11] (NaV1.5, 1 µM). For the same molecule, the “shift of steady-state inactivation curve” value was “the steady-state inactivation curves shifted towards more hyperpolarized membrane potentials” on NaV1.1 [8] and “the steady-state inactivation curves shifted towards more hyperpolarized membrane potentials” on NaV1.5 [11] (NaV1.5, 1 µM). Further, the “window of open probability” value is reported as “increased window of open probability” on NaV1.1 [8] and “increased window of open probability” on NaV1.5 [11] (NaV1.5, 1 µM). Besides, the “V1/2 of steady-state inactivation” value at NaV1.5 [11] (NaV1.5, 1 µM toxin, control −78.4 ± 0.2, mean ± SEM, n ≥ 3) is given as −87.5 ± 0.7 mV. Also, the “effect on sodium peak current” value at NaV1.5 [11] (NaV1.5, Figure 2E, Figure 3B and Figure 5A) is “inhibition of the sodium peak current”. In addition, the “modulation of gating kinetics” value at NaV1.8 [12] (NaV1.8, 1 μM) is given as “No relevant modulation of the gating kinetics”.

On to “CssIV: β-scorpion toxin CssIV (from Centruroides suffusus suffusus)”, for which the “competition with PnTx2-6” value in the data set on PnTx2-6 binding site is on record as “does not compete with PnTx2-6”.
